Assay results as given in US8399459B2, “1,4 oxazines as BACE1 and/or BACE2 inhibitors” (Hoffmann-La Roche Inc., priority 2011, dated 2013).
Structures can show the parent of a compound that is named as a salt.

Experiments:
[1] = molecular target: T1, BACE2 (Rattus norvegicus, UniProt Q6IE75); experiment: Assay for BACE inhibition by measuring cellular TMEM27 cleavage (INS-TMEM27 cells, ELISA); assay type: cell-based; conditions: INS-TMEM27 (INS1e-derived) cells; shed TMEM27 by ELISA
T1 construct: endogenous cellular BACE2 in the Ins1e rat cell line; endogenous in cells; host or cells: INS-TMEM27 (INS1e-derived rat cell line with doxycycline-inducible full-length human TMEM27)
T1 sequence (Q6IE75 63-514): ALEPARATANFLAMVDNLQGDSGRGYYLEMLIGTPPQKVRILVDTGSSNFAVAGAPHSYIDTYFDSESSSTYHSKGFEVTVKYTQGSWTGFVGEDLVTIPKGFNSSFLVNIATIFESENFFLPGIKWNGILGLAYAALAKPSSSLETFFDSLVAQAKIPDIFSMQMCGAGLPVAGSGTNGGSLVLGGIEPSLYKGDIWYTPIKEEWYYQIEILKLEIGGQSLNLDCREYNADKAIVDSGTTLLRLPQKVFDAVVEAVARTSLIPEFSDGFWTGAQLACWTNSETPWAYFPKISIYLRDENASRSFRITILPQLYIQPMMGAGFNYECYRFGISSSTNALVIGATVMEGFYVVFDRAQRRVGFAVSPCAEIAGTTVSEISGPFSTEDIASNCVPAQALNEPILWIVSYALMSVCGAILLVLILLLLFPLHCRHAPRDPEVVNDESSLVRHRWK
Text: Assay for BACE Inhibition by Measuring Cellular TMEM27 Cleavage:
The assay uses the principle of inhibition of human TMEM27 cleavage by endogenous cellular BACE2 in the Ins1e rat cell line and shedding from the cell surface into the culture medium, followed by detection in an ELISA assay. Inhibition of BACE2 prevents the cleavage and shedding in a dose-dependent manner.
The stable cell line “INS-TMEM27” represents an INS1e-derived cell line with inducible expression (using the TetOn system) of full-length hTMEM27 in a doxycycline-dependent manner. The cells are cultured throughout the experiment in RPMI1640+Glutamax (Invitrogen) Penicillin/Streptomycin, 10% Fetal bovine serum, […], […], 100 micrograms/ml G418 and 100 microgram/ml hygromycin and are grown inadherent culture at 37° C. in a standard CO2 cell culture incubator.
INS-TMEM27 cells are seeded in 96-well plates. After 2 days in culture, BACE2 inhibitor is added in a range of concentrations as required by the assay and after a further two hours, doxycycline is added to a final concentration of 500 ng/ml. The cells are incubated for a further 46 hours and the supernatant harvested for detection of shed TMEM27.
An ELISA assay (using a pair of mouse anti-human-TMEM27 antibodies, raised against the extracellular domain of TMEM27) is used for detection of TMEM27 in the culture medium. An EC50 for BACE2 inhibition is calculated using the ELISA readout for each inhibitor concentration with standard curve-fitting software such as XLFit for the Excel spreadsheet program.

[2] = molecular target: T2, BACE1 (Homo sapiens, UniProt P56817); experiment: Cellular Aβ-lowering assay (Aβ40 ELISA, HEK293 cells expressing human APP695); assay type: cell-based; conditions: HEK293 cells stably expressing human APP695; Aβ40 in supernatant after 18-20 hrs
T2 construct: Human HEK293 cells which are stably transfected with a vector expressing a cDNA of the human APP wt gene (APP695); endogenous in cells; host or cells: HEK293 (human), stably transfected with human APP695 wt only
T2 sequence (P56817 46-501): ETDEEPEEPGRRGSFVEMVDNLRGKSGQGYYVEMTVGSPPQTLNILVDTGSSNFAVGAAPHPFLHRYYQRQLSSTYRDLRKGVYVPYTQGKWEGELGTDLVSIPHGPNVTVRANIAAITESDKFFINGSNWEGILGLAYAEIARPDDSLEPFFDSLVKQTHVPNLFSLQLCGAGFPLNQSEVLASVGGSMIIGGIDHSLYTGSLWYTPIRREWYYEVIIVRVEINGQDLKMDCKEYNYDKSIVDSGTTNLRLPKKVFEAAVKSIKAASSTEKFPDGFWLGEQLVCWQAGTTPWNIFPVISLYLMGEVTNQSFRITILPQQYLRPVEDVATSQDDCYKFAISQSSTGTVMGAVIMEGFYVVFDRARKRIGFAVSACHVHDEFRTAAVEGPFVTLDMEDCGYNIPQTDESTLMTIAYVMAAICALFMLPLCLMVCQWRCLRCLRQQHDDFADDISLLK
Experimental: Cellular Aβ-Lowering Assay:
Human HEK293 cells which are stably transfected with a vector expressing a cDNA of the human APP wt gene (APP695) were used to assess the potency of the compounds in a cellular assay. The cells were seeded in 96-well microtiter plates in cell culture medium (Iscove, plus 10% (v/v) fetal bovine serum, glutamine, penicillin/streptomycin) to about 80% confluence and the compounds were added at a 10× concentration in 1/10 volume of medium without FCS containing 8% DMSO (final concentration of DMSO was kept at 0.8% v/v). After 18-20 hrs incubation at 37° C. and 5% CO2 in a humidified incubator the culture supernatant was harvested for the determination of Aβ40 concentrations. 96well ELISA plates (e.g., Nunc MaxiSorb) were coated with monoclonal antibody which specifically recognize the C-terminal end of Aβ40 (Brockhaus et al., NeuroReport 9, 1481-1486; 1998). After blocking of non-specific binding sites with e.g. 1% BSA and washing, the culture supernatants were added in suitable dilutions together with a horseradish peroxidase-coupled Aβ detection antibody (e.g., antibody 4G8, Senetek, Maryland Heights, Mo.) and incubated for 5 to 7 hrs. Subsequently the wells of the microtiter plate were washed extensively with Tris-buffered saline containing 0.05% Tween 20 and the assay was developed with tetramethylbenzidine/H2O2 in citric acid buffer. After stopping the reaction with one volume 1 N H2SO4 the reaction was measured in an ELISA reader at 450 nm wavelength. The concentrations of Aβ in the culture supernatants were calculated from a standard curve obtained with known amounts of pure Aβ peptide.

[3] = molecular target: T3, CYP2D6 (Homo sapiens, UniProt P10635); experiment: CYP inhibition assay, human liver microsomes, dextromethorphan O-demethylase; assay type: in vitro ADME; conditions: pooled human liver microsomes, read-out: CYP IC50 2D6
T3 construct: 0.2 mg/ml pooled human liver microsomes; from tissue; host or cells: pooled human liver microsomes
T3 sequence (P10635 whole entry): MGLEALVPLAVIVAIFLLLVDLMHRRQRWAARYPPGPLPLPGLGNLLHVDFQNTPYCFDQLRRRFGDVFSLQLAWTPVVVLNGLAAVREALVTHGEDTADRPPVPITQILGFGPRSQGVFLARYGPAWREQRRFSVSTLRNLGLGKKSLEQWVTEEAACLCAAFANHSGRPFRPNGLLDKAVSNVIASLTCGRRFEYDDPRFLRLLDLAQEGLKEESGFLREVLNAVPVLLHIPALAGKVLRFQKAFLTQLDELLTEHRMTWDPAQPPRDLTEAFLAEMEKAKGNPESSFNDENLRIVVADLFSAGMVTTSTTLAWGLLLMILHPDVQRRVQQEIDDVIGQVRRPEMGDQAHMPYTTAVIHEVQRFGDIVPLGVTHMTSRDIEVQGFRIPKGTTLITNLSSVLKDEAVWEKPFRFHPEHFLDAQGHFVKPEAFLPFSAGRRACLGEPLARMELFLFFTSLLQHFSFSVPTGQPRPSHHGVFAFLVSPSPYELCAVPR
Experimental: (§1) Inhibition of cytochromes P450 (CYPs) 2C9, 2D6 and 3A4 was assessed using human liver microsomes and CYP-selective substrate metabolism reactions. 50 μl incubations were made up containing (finally) 0.2 mg/ml pooled human liver microsomes, 5 μM substrate (diclofenac for CYP2C9 [4′hydroxylase], dextromethorphan for CYP2D6 [O-demethylase] or midazolam for CYP3A4 [1′hydroxylase]), 0.25 μL DMSO containing test inhibitor and NADPH regenerating system. Test inhibitor concentrations of 50, 16.7, 5.6, 1.9, 0.6 and 0.2 μM were assessed in singlicate. Incubations were prewarmed to 37° C. for 10 minutes before initiation by addition of NADPH regenerating system. Incubations were quenched after 5 minutes (20 minutes for dextromethorphan) by addition of 50 μl cold acetonitrile containing 20 ng/ml 4-OH-diclofenac-13C6, 20 ng/mL dextrorphan-D3 and 20 ng/mL 1-OH-midazolam-D4. Quenched incubates were stored at −20° C. for at least 1 hour before centrifugation (20,000×g, 20 minutes). Supernatants were removed and diluted 1:1 with water prior to analysis using a RapidFire sample injector system and API4000 mass spectrometer. Peak areas for substrate, metabolite and stable-labelled metabolite standard were determined using MS/MS. The peak area ratios between the metabolite generated by the enzymatic reaction and the internal standard were used in subsequent calculations. The percentage of (DMSO) control activity was calculated for each incubate and IC50 values estimated by non-linear regression. Sulfaphenazole, quinidine or ketoconazole were tested in each CYP2C9, CYP2D6 or CYP3A4 inhibition experiment, respectively, to ensure assay sensitivity and reproducibility. (Validated assays for human cytochrome P450 activities, R. L. Walsky and R. S. Obach, Drug Metabolism and Disposition 32: 647-660, 2004. and S. Fowler and H. Zhang, The AAPS Journal, Vol. 10, No. 2, 410-424, 2008.)

[4] = molecular target: T4, CYP3A4 (Homo sapiens, UniProt P08684); experiment: CYP inhibition assay, human liver microsomes, midazolam 1′hydroxylase; assay type: in vitro ADME; conditions: pooled human liver microsomes, read-out: CYP IC50 3A4
T4 construct: 0.2 mg/ml pooled human liver microsomes; from tissue; host or cells: pooled human liver microsomes
T4 sequence (P08684 whole entry): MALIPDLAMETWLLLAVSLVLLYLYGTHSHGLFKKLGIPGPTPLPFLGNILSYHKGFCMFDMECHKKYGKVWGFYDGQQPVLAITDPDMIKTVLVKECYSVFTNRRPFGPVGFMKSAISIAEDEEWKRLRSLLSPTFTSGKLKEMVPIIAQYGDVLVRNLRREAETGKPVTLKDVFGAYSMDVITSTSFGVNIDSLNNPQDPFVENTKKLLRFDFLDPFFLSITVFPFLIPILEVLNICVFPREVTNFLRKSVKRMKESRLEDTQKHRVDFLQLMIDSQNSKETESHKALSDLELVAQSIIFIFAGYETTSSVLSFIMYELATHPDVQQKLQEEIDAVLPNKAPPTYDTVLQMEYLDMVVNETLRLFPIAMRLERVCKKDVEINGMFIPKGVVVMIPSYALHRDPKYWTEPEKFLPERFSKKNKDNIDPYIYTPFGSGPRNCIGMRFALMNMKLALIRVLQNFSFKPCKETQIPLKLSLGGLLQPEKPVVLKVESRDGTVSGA
Experimental: as §1

[5] = molecular target: T5, CYP2C9 (Homo sapiens, UniProt P11712); experiment: CYP inhibition assay, human liver microsomes, diclofenac 4′hydroxylase; assay type: in vitro ADME; conditions: pooled human liver microsomes, read-out: CYP IC50 2C9
T5 construct: 0.2 mg/ml pooled human liver microsomes; from tissue; host or cells: pooled human liver microsomes
T5 sequence (P11712 whole entry): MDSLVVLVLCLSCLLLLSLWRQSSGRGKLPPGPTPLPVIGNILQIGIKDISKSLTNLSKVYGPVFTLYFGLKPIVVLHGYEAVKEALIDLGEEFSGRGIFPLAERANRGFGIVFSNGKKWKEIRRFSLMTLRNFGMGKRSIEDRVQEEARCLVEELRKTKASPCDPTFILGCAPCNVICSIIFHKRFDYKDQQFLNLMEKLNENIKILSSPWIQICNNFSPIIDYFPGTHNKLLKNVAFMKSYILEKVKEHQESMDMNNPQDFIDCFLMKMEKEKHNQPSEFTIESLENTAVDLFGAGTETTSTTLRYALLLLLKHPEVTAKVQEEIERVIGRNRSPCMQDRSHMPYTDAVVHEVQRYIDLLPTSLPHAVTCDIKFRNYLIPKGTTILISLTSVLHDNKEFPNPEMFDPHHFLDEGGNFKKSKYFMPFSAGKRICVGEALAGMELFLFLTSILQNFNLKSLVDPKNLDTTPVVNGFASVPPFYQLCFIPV
Experimental: as §1

IC50 [2] [nM] | Compound | further results
2480 | Cc1cc(Cl)cc(-c2cccc(C3(C)COCC(N)=N3)c2)c1 (stereo not shown) [Example 9, 5-(3′-Chloro-5′-methyl-biphenyl-3-yl)-5-methyl-5,6-dihydro-2H-[1,4]oxazin-3-ylamine] | IC50 [1]: 1110 nM
– | CC1(c2cccc(-c3cncnc3)c2)COCC(N)=N1 (stereo not shown) [Example 35, 5-Methyl-5-(3-pyrimidin-5-yl-phenyl)-5,6-dihydro-2H-[1,4]oxazin-3-ylamine] | IC50 [3]: 18000 nM; IC50 [4]: > 50000 nM; IC50 [5]: > 50000 nM
510 | C[C@@]1(c2cc(-c3cc(Cl)cc(Cl)c3)ccc2F)COCC(N)=N1 [Example 37, (R)-5-(3′,5′-Dichloro-4-fluoro-biphenyl-3-yl)-5-methyl-5,6-dihydro-2H-[1,4]oxazin-3-ylamine] | IC50 [1]: 120 nM
60 | Cc1cc(C2(c3cccc(-c4cccnc4)c3)COCC(N)=N2)ccc1OC(F)F (stereo not shown) [Example 44, 5-(4-Difluoromethoxy-3-methyl-phenyl)-5-(3-pyridin-3-yl-phenyl)-5,6-dihydro-2H-[1,4]oxazin-3-ylamine] | –
360 | Cc1cc(C2(c3cccc(-c4ccc(Cl)nc4)c3)COCC(N)=N2)ccc1OC(F)F (stereo not shown) [Example 45, 5-[3-(6-Chloro-pyridin-3-yl)-phenyl]-5-(4-difluoromethoxy-3-methyl-phenyl)-5,6-dihydro-2H-[1,4]oxazin-3-ylamine] | –
40 | Cc1cc(C2(c3cccc(-c4cncc(Cl)c4)c3)COCC(N)=N2)ccc1OC(F)F (stereo not shown) [Example 46, 5-[3-(5-Chloro-pyridin-3-yl)-phenyl]-5-(4-difluoromethoxy-3-methyl-phenyl)-5,6-dihydro-2H-[1,4]oxazin-3-ylamine] | IC50 [1]: 30 nM
110 | NC1=NC(c2ccc(OC(F)F)nc2)(c2cccc(-c3cncc(Cl)c3)c2)COC1 (stereo not shown) [Example 47, 5-[3-(5-Chloro-pyridin-3-yl)-phenyl]-5-(6-difluoromethoxy-pyridin-3-yl)-5,6-dihydro-2H-[1,4]oxazin-3-ylamine] | –
30 | COc1cncc(-c2cccc(C3(c4ccc(OC(F)F)nc4)COCC(N)=N3)c2)c1 (stereo not shown) [Example 48, 5-(6-Difluoromethoxy-pyridin-3-yl)-5-[3-(5-methoxy-pyridin-3-yl)-phenyl]-5,6-dihydro-2H-[1,4]oxazin-3-ylamine] | –
200 | CC1(c2cccc(-c3nc4ccc(Cl)cc4o3)c2)COCC(N)=N1 (stereo not shown) [Example 49, 5-[3-(6-Chloro-benzooxazol-2-yl)-phenyl]-5-methyl-5,6-dihydro-2H-[1,4]oxazin-3-ylamine] | IC50 [1]: 200 nM
1280 | CC1(c2cccc(-c3nc4cc(Cl)ccc4[nH]3)c2)COCC(N)=N1 (stereo not shown) [Example 50, 5-[3-(5-Chloro-1H-benzoimidazol-2-yl)-phenyl]-5-methyl-5,6-dihydro-2H-[1,4]oxazin-3-ylamine] | –
770 | NC1=NC(c2cc(-c3cncnc3)ccc2F)(C(F)F)COC1 (stereo not shown) [Example 51, 5-Difluoromethyl-5-(2-fluoro-5-pyrimidin-5-yl-phenyl)-5,6-dihydro-2H-[1,4]oxazin-3-ylamine] | –
280 | NC1=NC(c2cc(-c3cncc(Cl)c3)ccc2F)(C(F)F)COC1 (stereo not shown) [Example 52, 5-[5-(5-Chloro-pyridin-3-yl)-2-fluoro-phenyl]-5-difluoromethyl-5,6-dihydro-2H-[1,4]oxazin-3-ylamine] | –
1490 | CC1(c2cccc(-c3nc4cc(Cl)ccc4o3)c2)COCC(N)=N1 (stereo not shown) [Example 53, 5-[3-(5-Chloro-benzooxazol-2-yl)-phenyl]-5-methyl-5,6-dihydro-2H-[1,4]oxazin-3-ylamine] | –
1470 | CC1(c2cccc(C#Cc3ccccc3)c2)COCC(N)=N1 (stereo not shown) [Example 54, 5-Methyl-5-(3-phenylethynyl-phenyl)-5,6-dihydro-2H-[1,4]oxazin-3-ylamine] | –
2780 | CC1(c2cccc(C#Cc3ccsc3)c2)COCC(N)=N1 (stereo not shown) [Example 55, 5-Methyl-5-(3-thiophen-3-ylethynyl-phenyl)-5,6-dihydro-2H-[1,4]oxazin-3-ylamine] | –
2550 | COc1cc(-c2cccc(C3(C)COCC(N)=N3)c2)cc(F)c1F (stereo not shown) [Example 56, 5-(4′,5′-Difluoro-3′-methoxy-biphenyl-3-yl)-5-methyl-5,6-dihydro-2H-[1,4]oxazin-3-ylamine formate] | –
6720 | CC1(c2cccc(-c3cc(C(F)(F)F)cc(C(F)(F)F)c3)c2)COCC(N)=N1 (stereo not shown) [Example 57, 5-(3′,5′-Bis-trifluoromethyl-biphenyl-3-yl)-5-methyl-5,6-dihydro-2H-[1,4]oxazin-3-ylamine formate] | –
8340 | CC1(c2cccc(-c3ccc(F)c(OCC(F)(F)F)c3)c2)COCC(N)=N1 (stereo not shown) [Example 58, 5-[4′-Fluoro-3′-(2,2,2-trifluoro-ethoxy)-biphenyl-3-yl]-5-methyl-5,6-dihydro-2H-[1,4]oxazin-3-ylamine formate] | –
4390 | COc1ccc2ccc(-c3cccc(C4(C)COCC(N)=N4)c3)cc2c1 (stereo not shown) [Example 59, 5-[3-(7-Methoxy-naphthalen-2-yl)-phenyl]-5-methyl-5,6-dihydro-2H-[1,4]oxazin-3-ylamine formate] | –
